According to US10969380B2, “Simultaneous detection of cannibalism and senescence as prognostic marker for cancer” (Institut Gustave-Roussy, priority 2012, dated 2021):

Key:
[1] = test system: human primary keratinocytes (HEKn); test: SA-β-Gal senescence assay in human primary keratinocytes; assay type: cell-based; conditions: HEKn after fifth passage; 20 μM Kaempferol, 24 hours
Procedure: FIG. 12. Identification of entescence as a non-cell autonomous senescence. (A) Effects of P2Y2 inhibition on SA-β Gal activity of human primary keratinocytes. After the fifth passages, human primary keratinocytes were cultured during 24 hours in presence or in absence of 20 μM of P2Y2 inhibitor Kaempferol. The number of SA-β Gal positive single or cannibal cells per total number of cells examined (at least 300 per well) was recorded and frequencies of SA-β Gal positive were determined. Error bars represent means±SEM (n=3; *p <0.01). (B) Effects of P2Y2 inhibition on SA-β Gal activity detected after g-irradiation or mithoxantron treatment. […] Then as described above frequencies of SA-β Gal positive were determined (means±SEM; n=3; *p <0.01). […] As previously described, the number of SA-β Gal positive single or cannibal cells per total number of cells examined (at least 300 per well) was recorded (means±SEM; n=3; *p <0.01). […] P21WAF1 expression was also analyzed using antibody against p21^WAF1 (green). […] (F-H) Effects of P2Y2 depletion on DNA damage foci formation, p21^WAF1 expression and SA-β Gal activity detected after Δ133p53. After P2Y2 depletion, the percentage of Δ133p53 depleted cells showing positivity for γ-I-H2AX^+ or p21^WAF1 expression were determined by confocal microscopy (G,H) and analyzed for p Gal activity (Means±SEM; n=3; *P <0.01). […]

HCT116 cells = test: SA-β-Gal senescence assay in HCT116 cells; assay type: cell-based, human; conditions: 20 μM Kaempferol, 24 hours
Procedure: FIG. 4. Cellular cannibalism leads to senescence. (A,B) Effects of cellular cannibalism on cell proliferation. After cell sorting, cell proliferation of TP53 or Δ133TP53 knocked down and TP53 knocked out single or cannibal cells were performed during 6 days. (C-H) Effects of cellular cannibalism on senescence induction. Cannibal cells mediated by TP53 knockout or Δ133TP53 knockdown were examined in EdU incorporation assay (C,D), in DNA damage response (E,F) and in SA-β-Gal assay (G,H). (C) Determination of EdU incorporation on cannibal cells induced by Δ133TP53 knockdown, or TP53 knockout. […] The number of EdU positive single or cannibal cells per total number of cells examined (at least 300 per well) was recorded. […] (F) Quantification of DNA damage foci in single and cannibal cells after TP53 or Δ133TP53 inactivation. The percentage of γ-H2AX^+ cells or p53BP1^+ cells were determined by confocal microscopy. […] (I) p21^WAF1 expression during coculture of Tp53^+/+ or TP53^−/− cells, P21^WAF1 expression was determined by immunoblot. […] (K) Quantification of p21^WAF1 expression in single and cannibal cells after TP53 or Δ133TP53 inactivation. The percentage of […]21WAF^+ cells in cannibal cells was determined by confocal microscopy. […] P21^WAF1 expression was determined by immunoblot. […] Quantification of SA-β Gal positive cells were realized as described above (n=3; means±SEM; *P <0.01). […]

## O=c1c(O)c(-c2ccc(O)cc2)oc2cc(O)cc(O)c12 [kaempferol]
[1]
  senescence (frequency of senescent, SA-β-Gal-positive cannibal cells) during replicative stress: strongly reduced senescence
HCT116 cells
  senescence (frequency of senescent, SA-β-Gal-positive cannibal cells) after treatment with IR or with MTX: strongly reduced senescence
